Measured values reported in patent publication US20190203240A1, “METHODS FOR THE PRODUCTION OF RHAMNOSYLATED FLAVONOIDS” (Universitaet Hamburg, priority 2016, published 2019).
Several values for one entry are separate records, joined by “and”; a condition that tells them apart may be missing. Equal values may be shown once.

Key:
[1] = system: hydrogen peroxide (DHR) in NHEK cells; assay: Protection against UV-induced H2O2 stress in NHEK (DHR probe, flow cytometry); assay type: cell-based, human; conditions: 180 mJ/cm^2 UVB (2839 mJ/cm^2 UVA), 100 μM
Method: (§1) Pre-incubated NHEK were incubated with the test compound for 24 h. Then the specific fluorescence probe for the measurement of hydrogen peroxide (DHR) or lipid peroxides (C11-fluor) was added and incubated for 45 min. Irradiation occurred with in H2O2 determination UVB at 180 mJ/cm^2 (+UVA at 2839 mJ/cm^2) or UVB at 240 mJ/cm^2 (+UVA at 3538 mJ/cm^2) in lipid peroxide, respectively, using a SOL500 Sun Simulator lamp. After irradiation the cells were post-incubated for 30 min before flow-cytometry analysis.

STAT3 = STAT3 activity in HeLa-STAT3-luc cells stimulated with IFN-γ (luciferase); assay type: cell-based; conditions: +IFNγ 25 U/ml
Method: HeLa-STAT3-luc cells were stably transfected with the plasmid 4×M67 pTATA TK-Luc. Cells (20×10^3 cells/ml) were seeded 96-well plate the day before the assay. Then the cells were treated with the test substances for […] and then stimulated with IFN-γ 25 IU/ml. After 6 h, the cells were washed twice with PBS and lysed in […] lysis buffer containing 25 mM Tris-phosphate (pH 7.8), 8 mM MgCl2, 1 mM DTT, 1% Triton X-100, and 7% glycerol during […] at RT in a horizontal shaker. Luciferase activity was measured using GloMax 96 microplate luminometer (Promega) following the instructions of the luciferase assay kit (Promega, Madison, Wis., USA). […] The experiments for each concentration of the test items were done in triplicate wells.

procollagen I = assay: Stimulation of procollagen I synthesis in NHDF (ELISA); assay type: cell-based, human; conditions: 72 hours, 100 μM
Method: (§2) Tests were performed with normal human dermal fibroblast cultures at the 8th passage. Cells were grown in DMEM supplemented with glutamine at 2 mM, penicillin at 50 U/mL and streptomycin (50 μg/mL) and 10% of fetal calf serum (FCS) at 37° C. in a 5% CO2 atmosphere.
(§3) Fibroblasts were cultured for 24 hours before the cells were incubated with the test compounds for further 72 hours. After the incubation the culture supernatants were collected in order to measure the released quantities of procollagen I, VEGF, and fibronectin by means of ELISA. Reference test compounds were vitamin C (procollagen I), PMA (VEGF), and TGF-β (fibronectin).

VEGF = assay: Stimulation of VEGF release in NHDF (ELISA); assay type: cell-based, human; conditions: 72 hours, 100 μM
Method: as §2, §3

HaCaT cells = assay: Glucose uptake (2-NBDG) in HaCaT keratinocytes; assay type: cell-based; conditions: +2NBDG 50 μM, 24 h
Method: HaCaT cells (5×10^4) were seeded in 96-well black plates and incubated for 24 h. Then, medium was removed and the cells cultivated in OptiMEM, labeled with 50 μM 2-NBDG (2-[N-(7-nitrobenz-2-oxa-1,3-diazol-4-yl) amino]-2-deoxy-D-glucose and treated with the test substances or the positive control, Rosiglitazone, for 24 h. Medium was removed and the wells were carefully washed with PBS and incubated in PBS (100 μl/well). Finally the fluorescence was measured using the Incucyte FLR software, the data were analyzed by the total green object integrated intensity (GCU×μm2×Well) of the imaging system IncuCyte HD (Essen BioScience). The fluorescence of Rosiglitazone is taken as 100% of glucose uptake, and the glucose uptake was calculated as (% Glucose uptake)=100(T−B)/(R−B), where T (treated) is the fluorescence of test substance-treated cells, B (Basal) is the fluorescence of 2-NBDG cells and […] is the fluorescence of cells treated with Rosiglitazone.

TNF-α = assay: Anti-inflammatory potential: secreted TNF-α in stimulated NHEK (ELISA); assay type: cell-based, human; conditions: poly(I:C) stimulation, 100 μM
Method: (§4) NHEK were pre-incubated for 24 h with the test compounds. The medium was replaced with the NHEK culture medium containing the inflammatory inducers (PMA or Poly I:C) and incubated for another 24 hours. Positive and negative controls ran in parallel. At the endpoint the culture supernatants were quantified of secreted IL-8, PGE2 and TNF-α, by means of ELISA.

PGE2 = assay: Anti-inflammatory potential: secreted PGE2 in stimulated NHEK (ELISA); assay type: cell-based, human; conditions: PMA stimulation, 100 μM
Method: as §4

[2] = system: lipid peroxides (C11-fluor) in NHEK cells; assay: Protection against UV-induced lipid peroxide in NHEK (C11-fluor probe, flow cytometry); assay type: cell-based, human
Method: as §1

[3] = 240 mJ/cm^2 UVB (3538 mJ/cm^2 UVA), 100 μM
[4] = 240 mJ/cm^2 UVB (3538 mJ/cm^2 UVA), 100 μM, single values

C[C@@H]1O[C@@H](Oc2cc(O)cc3c2C(=O)CC(c2ccc(O)cc2)O3)[C@H](O)[C@H](O)[C@H]1O (mixture of isomers) [NR1, Naringenin-5-O-α-L-rhamnoside]
H2O2 % irradiated control [1]: 136%
H2O2 (AU) Mean [1]: 2516.5 AU
H2O2 Protection % [1]: −44%
H2O2 (AU) (DHR GMFI) ([1]; single values): 2531 AU and 2502 AU
% Activation (STAT3; IFNγ = 100%) (STAT3; 25 μM): 58.47%
RLU 1 (STAT3; 25 μM): 10925 RLU
RLU 2 (STAT3; 25 μM): 8301 RLU
RLU 3 (STAT3; 25 μM): 8752 RLU
RLU MEAN (STAT3; 25 μM): 9326 RLU
RLU specific (STAT3; 25 μM): 7319 RLU
% Activation (STAT3; IFNγ = 100%) (STAT3; 50 μM): 69.97%
RLU 1 (STAT3; 50 μM): 18272 RLU
RLU 2 (STAT3; 50 μM): 6426 RLU
RLU 3 (STAT3; 50 μM): 7599 RLU
RLU MEAN (STAT3; 50 μM): 10766 RLU
RLU specific (STAT3; 50 μM): 8758 RLU
Procollagen I % Control (procollagen I): 66%
Procollagen I % Stimulation (procollagen I): −34%
Procollagen I Mean (procollagen I): 1097 ng/mL
Procollagen I (procollagen I; single values): 1334 ng/mL and 860 ng/mL
Mean VEGF (VEGF): 92 pg/mL
VEGF % Control (VEGF): 128%
VEGF (VEGF; single values): 90 pg/mL and 94 pg/mL
% Glucose uptake (Rosiglitazone = 100%) (HaCaT cells; 25 μM): 87.7%
Mean (fluorescence) (HaCaT cells; 25 μM): 768005
Measure 1 (fluorescence) (HaCaT cells; 25 μM): 493970
Measure 2 (fluorescence) (HaCaT cells; 25 μM): 1160754
Measure 3 (fluorescence) (HaCaT cells; 25 μM): 649291
RFU specific (HaCaT cells; 25 μM): 761691 RFU
% Glucose uptake (Rosiglitazone = 100%) (HaCaT cells; 50 μM): 29.6%
Mean (fluorescence) (HaCaT cells; 50 μM): 263881
Measure 1 (fluorescence) (HaCaT cells; 50 μM): 278134
Measure 2 (fluorescence) (HaCaT cells; 50 μM): 256310
Measure 3 (fluorescence) (HaCaT cells; 50 μM): 257198
RFU specific (HaCaT cells; 50 μM): 257567 RFU
Cytokine [pg/mL] TNFα Mean (TNF-α): 516 pg/mL
TNFα % stim. control (TNF-α): 92%
Cytokine [pg/mL] TNFα (TNF-α; single values): 516 pg/mL
Cytokine [pg/mL] PGE2 Mean (PGE2): 1271 pg/mL
PGE2 % stim. control (PGE2): 81%
Cytokine [pg/mL] PGE2 (PGE2; single values): 851 pg/mL and 1691 pg/mL
C11-fluor (AU) Mean (1/GMFI) [2, 3]: 4.3E−04 AU
lipid peroxide % Irradiated control [2, 3]: 93%
lipid peroxide Protection % [2, 3]: 9%
C11-fluor (AU) 1/GMFI [2, 4]: 4.1E−04 AU and 4.4E−04 AU
C11-fluor (AU) GMFI [2, 4]: 2414 AU and 2255 AU
anti-oxidative function on lipid peroxides ([2]; UV irradiation): anti-oxidative function
